Laboratory results taken from PMC7374715, “Conservation of Cdc14 phosphatase specificity in plant fungal pathogens: implications for antifungal development” (Scientific Reports, 2020).
Where two headings read alike, the source gives them in different places. Numbered stars: 1 amine (or outer) side, 2 acyl side, 3 side chain; on linkers, the order of the positions; unused ones are H or OH. Square brackets hold non-standard residues; d marks the D form. Ends that are not written are not given here. Peptide text beside a SMILES is read from it. X1 = O=C([C@H](CC(F)(F)P(=O)(O)O)N[*:1])[*:2]; pS = N[C@@H](COP(=O)(O)O)C(=O)O

Experiments:
CzCdc14 [1] = conditions: DiFMUP; 0.5 nM enzyme, pH 7.5, 30 °C; mean of 3 ± SD
Protocol: All enzyme concentrations were 0.5 nM, except for PsCdc14 and VHR, which were assayed at 2 and 5 nM, respectively. Fluorescence intensity was measured continuously on a Synergy H1 microplate reader (BioTek) with excitation and emission wavelengths set at 358 and 450 nm, respectively. Fluorescence intensity was converted to product concentration using a 6,8-difluoro-4-methylumbelliferone standard curve. Background fluorescence was subtracted from each reaction and initial rates were calculated from the slope of the linear portion of the product concentration versus time plots. kcat and KM were calculated as described above.

MoCdc14 [2] = biological target: T1, MoCdc14 (Pyricularia oryzae, UniProt G4MRC9); conditions: DiFMUP; 0.5 nM enzyme, pH 7.5, 30 °C; mean of 3 ± SD
ScCdc14 [3] = biological target: T2, ScCdc14 (Saccharomyces cerevisiae, UniProt Q00684); assay: Enzyme inhibition, DiFMUP assay; format: biochemical
T2 construct: made in house; host or cells: E. coli BL21 AI
T2 sequence (Q00684 1-447 limits assumed): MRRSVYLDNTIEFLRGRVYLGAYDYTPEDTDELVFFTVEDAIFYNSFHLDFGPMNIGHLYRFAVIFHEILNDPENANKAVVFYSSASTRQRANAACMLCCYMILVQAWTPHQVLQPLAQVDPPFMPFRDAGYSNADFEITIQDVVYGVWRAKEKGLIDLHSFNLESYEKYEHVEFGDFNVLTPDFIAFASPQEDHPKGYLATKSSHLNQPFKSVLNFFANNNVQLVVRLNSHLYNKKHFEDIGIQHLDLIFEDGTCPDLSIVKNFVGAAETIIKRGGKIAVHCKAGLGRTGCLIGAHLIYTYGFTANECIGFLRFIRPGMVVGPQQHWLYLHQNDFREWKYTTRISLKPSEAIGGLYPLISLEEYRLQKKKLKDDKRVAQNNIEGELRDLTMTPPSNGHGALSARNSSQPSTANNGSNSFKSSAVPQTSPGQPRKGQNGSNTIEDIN
Source text: Measured initial rates were converted to percent activity relative to a reaction lacking pCF2Ser peptide. […] Ki is related to IC50 by the equation Ki = IC50/([S]/KM + 1). Since [S] was equal to KM in our assays, Ki = IC50/2.

MoCdc14 [4] = biological target: T1, MoCdc14; assay: biochemical; parameters: species or system Magnaporthe oryzae
CzCdc14 [5] = format: biochemical, Cercospora zeina; conditions: pNPP; 25 mM HEPES pH 7.5, 30 °C; mean of 3 ± SD
Protocol: Activities towards varying concentrations of para-nitrophenyl phosphate (pNPP) were measured in 100 µL assay buffer (25 mM HEPES pH 7.5, 2 mM TCEP, 1 mM EDTA, and 150 mM NaCl) at 30 °C. Enzyme concentrations were chosen to achieve absorbance values within the linear response range while satisfying the steady-state assumption where substrate consumption was < 1%. Reactions were initiated by enzyme addition and stopped with 1 N NaOH. Absorbance at 405 nm was measured on a Synergy H1 microplate reader (BioTek) and converted to product concentration using a para-nitrophenol standard curve. Initial rates were plotted as a function of substrate concentration and fit with the Michealis-Menten equation in GraphPad Prism (Version 8) to determine kcat and KM.

MoCdc14 [6] = biological target: T1, MoCdc14; conditions: pNPP; 25 mM HEPES pH 7.5, 30 °C; mean of 3 ± SD
AnCdc14 [7] = biological target: T3, AnCdc14 (Aspergillus niger, UniProt A2QDS6); assay: Phosphopeptide steady-state kinetics (Biomol Green); format: biochemical; conditions: phosphopeptide pS, pH 7.5, 30 °C, mean of 3 ± SD
CzCdc14 [8] = assay: as above; format: biochemical, Cercospora zeina; conditions: phosphopeptide pS, pH 7.5, 30 °C, mean of 3 ± SD
Protocol: (§1) Activities towards varying concentrations of the synthetic phosphopeptide HT(pSer)PIKSIG (Genscript Corp) were measured in 50 µL assay buffer at 30 °C essentially as described above for pNPP, except substrate consumption was limited to 10% due to limited assay sensitivity and the reaction was stopped with 100 µL Biomol Green (Enzo Life Sciences).

MoCdc14 [9] = biological target: T1, MoCdc14; format: biochemical, Magnaporthe oryzae; conditions: phosphopeptide pS; pH 7.5, 30 °C; Biomol Green; mean of 3 ± SD
BcCdc14 [10] = biological target: T4, BcCdc14 (Botrytis cinerea, UniProt A0A384J4N9); assay: Phosphopeptide steady-state kinetics (Biomol Green); format: biochemical; conditions: phosphopeptide pS, pH 7.5, 30 °C, mean of 3 ± SD
T4 sequence (A0A384J4N9 1-492): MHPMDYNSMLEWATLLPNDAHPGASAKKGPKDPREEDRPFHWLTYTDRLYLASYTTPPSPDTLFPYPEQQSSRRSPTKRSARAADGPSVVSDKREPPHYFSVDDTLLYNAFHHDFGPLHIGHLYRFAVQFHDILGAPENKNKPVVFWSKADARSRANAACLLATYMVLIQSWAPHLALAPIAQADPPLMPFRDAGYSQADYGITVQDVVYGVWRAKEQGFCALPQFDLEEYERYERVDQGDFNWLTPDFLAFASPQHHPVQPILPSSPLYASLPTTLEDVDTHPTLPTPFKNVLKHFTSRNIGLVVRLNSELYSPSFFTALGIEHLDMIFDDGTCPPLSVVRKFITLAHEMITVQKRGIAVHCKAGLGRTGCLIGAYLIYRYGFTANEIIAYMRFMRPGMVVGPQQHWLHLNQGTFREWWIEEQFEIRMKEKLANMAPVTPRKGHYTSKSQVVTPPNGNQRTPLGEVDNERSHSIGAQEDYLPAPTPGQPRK
Protocol: as §1

CgCdc14 [11] = biological target: T5, CgCdc14 (Colletotrichum gloeosporioides, UniProt A0A8H4CJA2); assay: as above; format: biochemical; conditions: phosphopeptide pS, pH 7.5, 30 °C, mean of 3 ± SD
Protocol: as §1

RsCdc14 [12] = biological target: T6, RsCdc14 (Rhizoctonia solani, UniProt L8WYM4); assay: as above; format: biochemical; conditions: phosphopeptide pS, pH 7.5, 30 °C, mean of 3 ± SD
Protocol: as §1

ScCdc14 [13] = biological target: T2, ScCdc14; assay: as above; format: biochemical; conditions: phosphopeptide pS, pH 7.5, 30 °C, mean of 3 ± SD
Protocol: as §1

BcCdc14 [14] = biological target: T4, BcCdc14; assay: MS specificity constant assay; format: biochemical; conditions: pooled phosphopeptides 375 nM each, 1 to 1,000 nM Cdc14, pH 7.5, 30 °C; LC-MS; mean of 3 ± SD
Source text: (§2) Our primary interest was the conservation of substrate specificity. To define the specificities of the eight fungal pathogen Cdc14 homologs and compare them to the well-characterized ScCdc14, we developed a new assay that uses mass spectrometry (MS) to measure the specificity constant, kcat/KM, for a collection of synthetic phosphopeptide substrates (Fig. 3a). This assay, based on a similar assay for measuring protease specificity, is more sensitive and has a much broader linear dynamic range (Fig. 3b) than the conventional malachite green colorimetric assay used to generate the phosphopeptide data in Table 1. These advantages made it convenient for measuring Cdc14 activity towards substrates whose specificity constants can vary by several orders of magnitude. The assay also increases throughput by allowing simultaneous measurement of kcat/KM for many different substrates. The peptides were based on the Yen1 Ser583 sequence with variations designed to test the importance of the four known ScCdc14 substrate recognition features (phosphoamino acid identity, + 1 Pro, + 3 Lys/Arg, Lys/Arg near + 3). Measurements were made by integrating MS chromatogram peak areas for the phosphorylated and dephosphorylated peptide species after Cdc14 treatment and using those values to calculate the fraction of substrate consumed (Fig. 3c; see “Methods” for details). […] Results from this assay were in reasonably good agreement with conventional steady-state kinetic measurements of kcat and KM using a malachite green spectroscopic assay (compare substrate pS in Tables 1 and 2), although the MS assay consistently yielded kcat/KM ~ three to fivefold higher, likely due to sensitivity limitations of the malachite green assay with high affinity substrates.
(§3) kcat/KM measurements can be made on pooled substrate mixtures for characterizing enzymatic specificity, provided substrate concentrations are far below KM[38]. Mass spectrometry is a useful tool for monitoring reaction progress in such mixtures, as long as each substrate and product has a unique mass. […]

CgCdc14 [15] = biological target: T5, CgCdc14; assay: MS specificity constant assay; format: biochemical; conditions: pooled phosphopeptides 375 nM each, 1 to 1,000 nM Cdc14, pH 7.5, 30 °C; LC-MS; mean of 3 ± SD
Source text: as §2, §3

ScCdc14 [16] = biological target: T2, ScCdc14; assay: MS specificity constant assay; format: biochemical; conditions: pooled phosphopeptides 375 nM each, 1 to 1,000 nM Cdc14, pH 7.5, 30 °C; LC-MS; mean of 3 ± SD
Source text: as §2, §3

AnCdc14 [17] = biological target: T3, AnCdc14; assay: MS specificity constant assay; format: biochemical; conditions: pooled phosphopeptides 375 nM each, 1 to 1,000 nM Cdc14, pH 7.5, 30 °C; LC-MS; mean of 3 ± SD
CzCdc14 [18] = assay: MS specificity constant assay; format: biochemical, Cercospora zeina; conditions: pooled phosphopeptides 375 nM each, 1 to 1,000 nM Cdc14, pH 7.5, 30 °C; LC-MS; mean of 3 ± SD
Source text: (§4) Our primary interest was the conservation of substrate specificity. To define the specificities of the eight fungal pathogen Cdc14 homologs and compare them to the well-characterized ScCdc14, we developed a new assay that uses mass spectrometry (MS) to measure the specificity constant, kcat/KM, for a collection of synthetic phosphopeptide substrates (Fig. 3a). This assay, based on a similar assay for measuring protease specificity, is more sensitive and has a much broader linear dynamic range (Fig. 3b) than the conventional malachite green colorimetric assay used to generate the phosphopeptide data in Table 1. These advantages made it convenient for measuring Cdc14 activity towards substrates whose specificity constants can vary by several orders of magnitude. The assay also increases throughput by allowing simultaneous measurement of kcat/KM for many different substrates. The peptides were based on the Yen1 Ser583 sequence with variations designed to test the importance of the four known ScCdc14 substrate recognition features (phosphoamino acid identity, + 1 Pro, + 3 Lys/Arg, Lys/Arg near + 3). Measurements were made by integrating MS chromatogram peak areas for the phosphorylated and dephosphorylated peptide species after Cdc14 treatment and using those values to calculate the fraction of substrate consumed (Fig. 3c; see “Methods” for details). […]

MoCdc14 [19] = biological target: T1, MoCdc14; format: biochemical, Magnaporthe oryzae; conditions: pooled phosphopeptides 375 nM each, 1 to 1,000 nM Cdc14, pH 7.5, 30 °C; LC-MS; mean of 3 ± SD
RsCdc14 [20] = biological target: T6, RsCdc14; assay: MS specificity constant assay; format: biochemical; conditions: pooled phosphopeptides 375 nM each, 1 to 1,000 nM Cdc14, pH 7.5, 30 °C; LC-MS; mean of 3 ± SD
UmCdc14 = assay: MS specificity constant assay; format: biochemical, Ustilago maydis; conditions: pooled phosphopeptides 375 nM each, 1 to 1,000 nM Cdc14, pH 7.5, 30 °C; LC-MS; mean of 3 ± SD
Source text: as §4

all Cdc14 homologs = assay: MS specificity constant assay, all homologs compared; format: biochemical
Source text: as §4

T6 sequence (L8WYM4 2-162 limits assumed): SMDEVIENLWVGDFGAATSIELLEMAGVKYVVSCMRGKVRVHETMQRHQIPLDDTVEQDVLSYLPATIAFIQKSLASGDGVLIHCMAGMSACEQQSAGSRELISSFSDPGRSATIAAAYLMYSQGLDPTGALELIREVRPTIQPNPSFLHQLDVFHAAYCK
T1 sequence (G4MRC9 1-474 limits assumed): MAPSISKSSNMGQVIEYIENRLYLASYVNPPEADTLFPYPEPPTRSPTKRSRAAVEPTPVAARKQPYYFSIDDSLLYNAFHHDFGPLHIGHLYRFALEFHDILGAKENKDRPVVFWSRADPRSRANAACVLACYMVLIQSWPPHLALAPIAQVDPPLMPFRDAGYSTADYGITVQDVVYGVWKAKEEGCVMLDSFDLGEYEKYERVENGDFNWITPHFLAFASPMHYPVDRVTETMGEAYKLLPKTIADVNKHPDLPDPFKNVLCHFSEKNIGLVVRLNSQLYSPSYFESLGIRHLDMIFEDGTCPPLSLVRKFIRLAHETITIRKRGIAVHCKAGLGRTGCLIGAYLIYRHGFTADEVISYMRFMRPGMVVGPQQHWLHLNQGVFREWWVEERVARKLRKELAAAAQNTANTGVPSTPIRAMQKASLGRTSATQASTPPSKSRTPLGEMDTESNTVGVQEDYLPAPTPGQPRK
T3 sequence (A2QDS6 1-476 limits assumed): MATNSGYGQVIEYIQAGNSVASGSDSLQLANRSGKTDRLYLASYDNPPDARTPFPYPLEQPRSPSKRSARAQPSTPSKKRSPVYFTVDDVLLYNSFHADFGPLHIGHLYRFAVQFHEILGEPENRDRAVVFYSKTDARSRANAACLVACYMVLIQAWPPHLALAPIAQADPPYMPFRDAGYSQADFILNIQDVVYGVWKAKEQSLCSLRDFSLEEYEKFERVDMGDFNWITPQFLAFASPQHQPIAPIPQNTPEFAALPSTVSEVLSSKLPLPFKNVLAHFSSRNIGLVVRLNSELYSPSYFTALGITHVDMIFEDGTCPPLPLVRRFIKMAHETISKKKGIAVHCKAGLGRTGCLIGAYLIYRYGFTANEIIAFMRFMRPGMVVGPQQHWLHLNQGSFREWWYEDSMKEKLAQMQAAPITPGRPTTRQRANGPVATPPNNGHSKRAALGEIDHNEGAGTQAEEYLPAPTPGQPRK
T5 sequence (A0A8H4CJA2 entry or part of it): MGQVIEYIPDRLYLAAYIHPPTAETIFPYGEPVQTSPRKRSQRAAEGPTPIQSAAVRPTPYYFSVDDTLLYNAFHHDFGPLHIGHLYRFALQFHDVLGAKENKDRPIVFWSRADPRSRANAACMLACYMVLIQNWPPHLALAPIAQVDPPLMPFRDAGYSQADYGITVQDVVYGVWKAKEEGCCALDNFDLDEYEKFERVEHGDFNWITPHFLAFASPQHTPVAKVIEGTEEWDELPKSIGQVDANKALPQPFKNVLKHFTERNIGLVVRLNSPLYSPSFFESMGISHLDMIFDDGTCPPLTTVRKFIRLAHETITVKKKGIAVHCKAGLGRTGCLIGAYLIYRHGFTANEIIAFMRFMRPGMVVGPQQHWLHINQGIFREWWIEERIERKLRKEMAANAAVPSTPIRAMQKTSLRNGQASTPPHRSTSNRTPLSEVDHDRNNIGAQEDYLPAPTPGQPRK

With `Cc1cc(=O)oc2c(F)c(OP(=O)(O)O)c(F)cc12` [DiFMUP] the Km (CzCdc14 [1]) was 66 ± 11 µM, the kcat (CzCdc14 [1]) was 31 ± 2 s⁻¹ and the kcat/KM (CzCdc14 [1]) was 477,000 ± 10,600 M^−1 s^−1. For the same compound, the kcat (MoCdc14 [2]) was 3 ± 0.5 s⁻¹ and the kcat/KM (MoCdc14 [2]) was 68,000 ± 6,100 M^−1 s^−1.

Work on `CC(C)[C@H](NC(=O)[C@@H](N)CCC(=O)O)C(=O)N[C@@H](CC(F)(F)P(=O)(O)O)C(=O)N1CCC[C@H]1C(=O)N[C@H](C(=O)N[C@@H](CCCCN)C(=O)N[C@@H](CCCNC(=N)N)C(N)=O)[C@@H](C)O` [pCF2Ser peptide, Glu-Val-pCF2Ser-Pro-Thr-Lys-Arg-amide] (H-EV[X1]PTKR-NH2) yielded a Ki (ScCdc14 [3]) of 3.2 ± 1 µM and a Ki (MoCdc14 [4]) of 3.4 ± 1.2 µM.

Compound `O=[N+]([O-])c1ccc(OP(=O)(O)O)cc1` [pNPP, para-nitrophenyl phosphate] has a Km (CzCdc14 [5]) of 25000 ± 2000 µM, a kcat (CzCdc14 [5]) of 2.8 ± 0.1 s⁻¹ and a kcat/KM (CzCdc14 [5]) of 115 ± 6 M⁻¹ s⁻¹. For the same compound, the kcat (MoCdc14 [6]) was 1.02 ± 0.03 s⁻¹ and the kcat/KM (MoCdc14 [6]) was 40 ± 2 M⁻¹ s⁻¹.

HT[pS]PIKSIG was tested, and the Km (AnCdc14 [7]) was 194 ± 44 µM, the kcat (AnCdc14 [7]) was 1.0 ± 0.1 s⁻¹ and the kcat/KM (AnCdc14 [7]) was 5,100 ± 800 M^−1 s^−1. For the same compound, the Km (CzCdc14 [8]) was 62 ± 14 µM, the kcat (CzCdc14 [8]) was 2.1 ± 0.1 s⁻¹ and the kcat/KM (CzCdc14 [8]) was 34,000 ± 8,000 M^−1 s^−1. For the same compound, the Km (MoCdc14 [9]) was 63 ± 19 µM, the kcat (MoCdc14 [9]) was 0.4 ± 0.02 s⁻¹ and the kcat/KM (MoCdc14 [9]) was 6,200 ± 1,700 M^−1 s^−1. For the same compound, the Km (BcCdc14 [10]) was 297 ± 38 µM, the kcat/KM (BcCdc14 [10]) was 3,400 ± 300 M^−1 s^−1 and the Km (CgCdc14 [11]) was 351 ± 21 µM. The kcat (CgCdc14 [11]) was 2.2 ± 0.1 s⁻¹, the kcat/KM (CgCdc14 [11]) was 6,200 ± 200 M^−1 s^−1 and the Km (RsCdc14 [12]) was 178 ± 52 µM. For the same compound, the kcat (RsCdc14 [12]) was 0.52 ± 0.07 s⁻¹, the kcat/KM (RsCdc14 [12]) was 3,000 ± 600 M^−1 s^−1 and the kcat (ScCdc14 [13]; 640 nm) was 1.4 ± 0.1 s⁻¹. For the same compound, the Km (ScCdc14 [13]) was 173 ± 21 µM, the kcat/KM (ScCdc14 [13]) was 7,800 ± 300 M^−1 s^−1 and the “specificity constant kcat/KM” value (BcCdc14 [14]) was 15,700 ± 1,200 M^−1 s^−1. The “specificity constant kcat/KM” value (CgCdc14 [15]) was 19,400 ± 1,800 M^−1 s^−1, the “specificity constant kcat/KM” value (ScCdc14 [16]) was 21,100 ± 1,400 M^−1 s^−1 and the “specificity constant kcat/KM” value (AnCdc14 [17]) was 25,200 ± 2,200 M^−1 s^−1. The “specificity constant kcat/KM” value (CzCdc14 [18]) was 110,800 ± 10,600 M^−1 s^−1, the “specificity constant kcat/KM” value (MoCdc14 [19]) was 17,000 ± 2,500 M^−1 s^−1 and the “specificity constant kcat/KM” value (RsCdc14 [20]) was 17,300 ± 1,500 M^−1 s^−1. For the same compound, the “specificity constant kcat/KM” value (UmCdc14) was 12,900 ± 3,300 M^−1 s^−1, the “kcat/KM of pSer-containing peptide higher than pThr-containing peptide” value (all Cdc14 homologs) was > 1,000 fold and the “kcat/KM of pSer-containing peptide higher than pTyr-containing peptide” value (all Cdc14 homologs) was over 100 fold.
